Results as given in ChEMBL document CHEMBL1201861, “Genomics of Drug Sensitity in Cancer screening data, Wellcome Trust Sanger Institute”.

Key:
Assay in all cases: cells
COR-L23 = assay type: functional, cell-based; details: Homo sapiens;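 further: cell viability assay measuring how strongly compounds suppress growth of COR-L23 cells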
Description: SANGER: Inhibition of human COR-L23 cell growth in a cell viability assay.

CaR-1 = assay type: functional, cell-based; details: Homo sapiens;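 further: growth inhibition of human CaR-1 cancer cells, read out with a cell viability assay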
Description: SANGER: Inhibition of human CaR-1 cell growth in a cell viability assay.

Daoy = assay type: functional, cell-based; details: Homo sapiens;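 further: daoy cell growth inhibition, read out as cell viability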
Description: SANGER: Inhibition of human Daoy cell growth in a cell viability assay.

EFO-27 = assay type: functional, cell-based; details: Homo sapiens;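 further: growth inhibition of EFO-27 cells, read out with a cell viability assay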
Description: SANGER: Inhibition of human EFO-27 cell growth in a cell viability assay.

FaDu = assay type: functional, cell-based; details: Homo sapiens;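 further: cell viability readout of growth inhibition in FaDu cells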
Description: SANGER: Inhibition of human FADU cell growth in a cell viability assay.

HCC1806 = assay type: functional, cell-based; details: Homo sapiens;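 further: growth inhibition of the cancer cell line, determined with a cell viability assay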
Description: SANGER: Inhibition of human HCC1806 cell growth in a cell viability assay.

KYSE-140 = assay type: functional, cell-based; details: Homo sapiens;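 further: cell viability assay measuring growth inhibition in human KYSE-140 cells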
Description: SANGER: Inhibition of human KYSE-140 cell growth in a cell viability assay.

KYSE-180 = assay type: functional, cell-based; details: Homo sapiens;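 further: growth inhibition of KYSE-180 cells, read out with a cell viability assay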
Description: SANGER: Inhibition of human KYSE-180 cell growth in a cell viability assay.

KYSE-270 = assay type: functional, cell-based; details: Homo sapiens;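 further: cell growth inhibition measured with a viability assay in the human KYSE-270 line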
Description: SANGER: Inhibition of human KYSE-270 cell growth in a cell viability assay.

MDA-MB-231 = assay type: functional, cell-based; details: Homo sapiens
Description: SANGER: Inhibition of human MDA-MB-231 cell growth in a cell viability assay.

MDA-MB-453 = assay type: functional, cell-based; details: Homo sapiens
Description: SANGER: Inhibition of human MDA-MB-453 cell growth in a cell viability assay.

NCI-H1563 = assay type: functional, cell-based; details: Homo sapiens;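 further: growth inhibition of human NCI-H1563 cells, read out with a cell viability assay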
Description: SANGER: Inhibition of human NCI-H1563 cell growth in a cell viability assay.

NCI-H1573 = assay type: functional, cell-based; details: Homo sapiens;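 further: growth inhibition of NCI-H1573 cells, read out with a cell viability assay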
Description: SANGER: Inhibition of human NCI-H1573 cell growth in a cell viability assay.

NCI-H2052 = assay type: functional, cell-based; details: Homo sapiens;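 further: growth inhibition of NCI-H2052 cells, read out with a cell viability assay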
Description: SANGER: Inhibition of human NCI-H2052 cell growth in a cell viability assay.

NCI-H2342 = assay type: functional, cell-based; details: Homo sapiens;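 further: growth inhibition of the cancer cell line, determined with a cell viability assay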
Description: SANGER: Inhibition of human NCI-H2342 cell growth in a cell viability assay.

NCI-H292 = assay type: functional, cell-based; details: Homo sapiens;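 further: growth inhibition of NCI-H292 cells, read out with a cell viability assay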
Description: SANGER: Inhibition of human NCI-H292 cell growth in a cell viability assay.

NCI-H441 = assay type: functional, cell-based; details: Homo sapiens;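 further: growth inhibition of NCI-H441 cells, read out with a cell viability assay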
Description: SANGER: Inhibition of human NCI-H441 cell growth in a cell viability assay.

NCI-H520 = assay type: functional, cell-based; details: Homo sapiens;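 further: growth inhibition of NCI-H520 cells, measured by a cell viability assay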
Description: SANGER: Inhibition of human NCI-H520 cell growth in a cell viability assay.

NCI-H522 = assay type: functional, cell-based; details: Homo sapiens;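 further: cell viability assay measuring growth inhibition of human NCI-H522 cells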
Description: SANGER: Inhibition of human NCI-H522 cell growth in a cell viability assay.

OE33 = assay type: functional, cell-based; details: Homo sapiens;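 further: growth inhibition of human OE33 cells, measured by a cell viability assay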
Description: SANGER: Inhibition of human OE33 cell growth in a cell viability assay.

OVCAR-5 = assay type: functional, cell-based; details: Homo sapiens;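 further: growth inhibition of human OVCAR-5 cells, read out with a cell viability assay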
Description: SANGER: Inhibition of human OVCAR-5 cell growth in a cell viability assay.

PC-14 = assay type: functional, cell-based; details: Homo sapiens;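 further: cell viability assay measuring inhibition of PC-14 cell growth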
Description: SANGER: Inhibition of human PC-14 cell growth in a cell viability assay.

PC-3 = assay type: functional, cell-based; details: Homo sapiens;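 further: cell viability assay measuring growth inhibition of PC-3 cells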
Description: SANGER: Inhibition of human PC-3 cell growth in a cell viability assay.

PFSK-1 = assay type: functional, cell-based; details: Homo sapiens;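 further: cell viability assay measuring how strongly compounds suppress growth of human PFSK-1 cells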
Description: SANGER: Inhibition of human PFSK-1 cell growth in a cell viability assay.

RD = assay type: functional, cell-based; details: Homo sapiens
Description: SANGER: Inhibition of human RD cell growth in a cell viability assay.

RERF-LC-MS = assay type: functional, cell-based; details: Homo sapiens;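 further: growth inhibition of human RERF-LC-MS cells, read out by a cell viability assay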
Description: SANGER: Inhibition of human RERF-LC-MS cell growth in a cell viability assay.

SCC-4 = assay type: functional, cell-based; details: Homo sapiens;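 further: growth inhibition of human SCC-4 cells, read out as cell viability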
Description: SANGER: Inhibition of human SCC-4 cell growth in a cell viability assay.

SK-HEP1 = assay type: functional, cell-based, SK-HEP-1; details: Homo sapiens;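 further: cell viability readout used to quantify reduction in proliferation of human SK-HEP-1 cells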
Description: SANGER: Inhibition of human SK-HEP-1 cell growth in a cell viability assay.

SNU-387 = assay type: functional, cell-based; details: Homo sapiens
Description: SANGER: Inhibition of human SNU-387 cell growth in a cell viability assay.

SW1463 = assay type: functional, cell-based; details: Homo sapiens;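 further: growth inhibition of SW1463 cells, determined with a cell viability assay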
Description: SANGER: Inhibition of human SW1463 cell growth in a cell viability assay.

SW948 = assay type: functional, cell-based; details: Homo sapiens;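 further: growth inhibition of SW948 cells, read out with a cell viability assay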
Description: SANGER: Inhibition of human SW948 cell growth in a cell viability assay.

AN3-CA = assay type: functional, cell-based; details: Homo sapiens;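 further: growth inhibition of human AN3-CA cells measured by a cell viability assay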
Description: SANGER: Inhibition of human AN3-CA cell growth in a cell viability assay.

AU565 = assay type: functional, cell-based; details: Homo sapiens;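 further: cell viability assay measuring growth inhibition of human AU565 cells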
Description: SANGER: Inhibition of human AU565 cell growth in a cell viability assay.

C3A = assay type: functional, cell-based; details: Homo sapiens;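 further: growth inhibition of C3A human cells, quantified with a cell viability readout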
Description: SANGER: Inhibition of human C3A cell growth in a cell viability assay.

CAL-54 = assay type: functional, cell-based; details: Homo sapiens;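 further: growth inhibition of CAL-54 cells, read out by a viability measurement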
Description: SANGER: Inhibition of human CAL-54 cell growth in a cell viability assay.

CAL-85-1 = assay type: functional, cell-based; details: Homo sapiens;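 further: growth inhibition of human CAL-85-1 cells, read out with a cell viability assay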
Description: SANGER: Inhibition of human CAL-85-1 cell growth in a cell viability assay.

UMC-11 = assay type: functional, cell-based; details: Homo sapiens;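 further: growth inhibition of UMC-11 cells, read out with a cell viability assay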
Description: SANGER: Inhibition of human UMC-11 cell growth in a cell viability assay.

YAPC = assay type: functional, cell-based; details: Homo sapiens;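 further: growth inhibition of YAPC cells, measured with a cell viability assay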
Description: SANGER: Inhibition of human YAPC cell growth in a cell viability assay.

COLO-680N = assay type: functional, cell-based; details: Homo sapiens;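 further: cell viability assay used to measure inhibition of COLO-680N cell growth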
Description: SANGER: Inhibition of human COLO-680N cell growth in a cell viability assay.

MKN-28 = assay type: functional, cell-based; details: Homo sapiens;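 further: cell viability assay read-out, IC50 reflects suppression of growth of human MKN-28 cells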
Description: SANGER: Inhibition of human MKN28 cell growth in a cell viability assay.

UACC-893 = assay type: functional, cell-based; details: Homo sapiens
Description: SANGER: Inhibition of human UACC-893 cell growth in a cell viability assay.

HCC1599 = assay type: functional, cell-based, Homo sapiens; details: Homo sapiens, HCC1599;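 further: growth inhibition of HCC1599 cells, read out in a cell viability assay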
Description: SANGER: Inhibition of human HCC1599 cell growth in a cell viability assay.

Kasumi 1 = assay type: functional, cell-based, Homo sapiens; details: Homo sapiens, Kasumi 1;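 further: growth inhibition of human Kasumi-1 cells, read out by a cell viability assay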
Description: SANGER: Inhibition of human KASUMI-1 cell growth in a cell viability assay.

LB373-MEL-D = assay type: functional, cell-based, Homo sapiens; details: Homo sapiens, LB373-MEL-D;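 further: growth inhibition of the cell line, read out in a cell viability assay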
Description: SANGER: Inhibition of human LB373-MEL-D cell growth in a cell viability assay.

LOUCY = assay type: functional, cell-based, Homo sapiens; details: Homo sapiens, LOUCY;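 further: growth inhibition of human LOUCY cells, read out with a cell viability assay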
Description: SANGER: Inhibition of human LOUCY cell growth in a cell viability assay.

LP-1 = assay type: functional, cell-based, Homo sapiens; details: Homo sapiens, LP-1;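 further: growth inhibition of human LP-1 cells, with the read-out taken from a cell viability assay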
Description: SANGER: Inhibition of human LP-1 cell growth in a cell viability assay.

LU-165 = assay type: functional, cell-based, Homo sapiens; details: Homo sapiens, LU-165
Description: SANGER: Inhibition of human LU-165 cell growth in a cell viability assay.

MC-CAR = assay type: functional, cell-based, Homo sapiens; details: Homo sapiens, MC-CAR;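 further: growth inhibition of the human MC-CAR cell line, read out by a cell viability assay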
Description: SANGER: Inhibition of human MC-CAR cell growth in a cell viability assay.

NALM-6 = assay type: functional, cell-based, Homo sapiens; details: Homo sapiens, NALM-6;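 further: growth inhibition of NALM-6 cells, read out with a cell viability assay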
Description: SANGER: Inhibition of human NALM-6 cell growth in a cell viability assay.

NCI-H1522 = assay type: functional, cell-based, Homo sapiens; details: Homo sapiens, NCI-H1522;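 further: growth inhibition of NCI-H1522 cells, read out with a cell viability assay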
Description: SANGER: Inhibition of human NCI-H1522 cell growth in a cell viability assay.

NCI-H187 = assay type: functional, cell-based, Homo sapiens; details: Homo sapiens, NCI-H187;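 further: growth inhibition of NCI-H187 cells, read out as cell viability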
Description: SANGER: Inhibition of human NCI-H187 cell growth in a cell viability assay.

RPMI-6666 = assay type: functional, cell-based, Homo sapiens; details: Homo sapiens, RPMI-6666
Description: SANGER: Inhibition of human RPMI-6666 cell growth in a cell viability assay.

SUP-T1 = assay type: functional, cell-based, Homo sapiens; details: Homo sapiens, SUP-T1;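 further: growth inhibition of human SUP-T1 cells, read out as cell viability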
Description: SANGER: Inhibition of human SUP-T1 cell growth in a cell viability assay.

BC-3 = assay type: functional, cell-based, Homo sapiens; details: Homo sapiens, BC-3;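 further: cell viability assay measuring growth inhibition of human BC-3 cells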
Description: SANGER: Inhibition of human BC-3 cell growth in a cell viability assay.

BL-41 = assay type: functional, cell-based; details: Homo sapiens;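 further: growth inhibition of human BL-41 cells, read out with a cell viability assay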
Description: SANGER: Inhibition of human BL-41 cell growth in a cell viability assay.

CA46 = assay type: functional, cell-based, Homo sapiens; details: Homo sapiens, CA46
Description: SANGER: Inhibition of human CA46 cell growth in a cell viability assay.

U-698-M = assay type: functional, cell-based, Homo sapiens; details: Homo sapiens, U-698-M
Description: SANGER: Inhibition of human U-698-M cell growth in a cell viability assay.

Compound `NC1(c2ccc(-c3nc4ccn5c(=O)[nH]nc5c4cc3-c3ccccc3)cc2)CCC1` [MK-2206] has an IC50 (COR-L23) of over 4 µM, an IC50 (CaR-1) of over 4 µM and an IC50 (Daoy) of over 4 µM. For the same compound, the IC50 (EFO-27) was over 4 µM, the IC50 (FaDu) was over 4 µM and the IC50 (HCC1806) was over 4 µM. The IC50 (KYSE-140) was over 4 µM, the IC50 (KYSE-180) was over 4 µM and the IC50 (KYSE-270) was over 4 µM. For the same compound, the IC50 (MDA-MB-231) was over 4 µM, the IC50 (MDA-MB-453) was over 4 µM and the IC50 (NCI-H1563) was 0.482 µM. It also gave an IC50 (NCI-H1573) of over 4 µM, an IC50 (NCI-H2052) of over 4 µM and an IC50 (NCI-H2342) of over 4 µM. The IC50 (NCI-H292) was over 4 µM, the IC50 (NCI-H441) was over 4 µM and the IC50 (NCI-H520) was 0.986 µM. It also gave an IC50 (NCI-H522) of over 4 µM, an IC50 (OE33) of over 4 µM and an IC50 (OVCAR-5) of over 4 µM. It also gave an IC50 (PC-14) of over 4 µM, an IC50 (PC-3) of over 4 µM and an IC50 (PFSK-1) of over 4 µM. For the same compound, the IC50 (RD) was over 4 µM, the IC50 (RERF-LC-MS) was over 4 µM and the IC50 (SCC-4) was over 4 µM. It also gave an IC50 (SK-HEP1) of over 4 µM, an IC50 (SNU-387) of 1.88 µM and an IC50 (SW1463) of over 4 µM. For the same compound, the IC50 (SW948) was over 4 µM, the IC50 (AN3-CA) was 3.62 µM and the IC50 (AU565) was over 4 µM. For the same compound, the IC50 (C3A) was over 4 µM, the IC50 (CAL-54) was 1.71 µM and the IC50 (CAL-85-1) was over 4 µM. For the same compound, the IC50 (UMC-11) was over 4 µM, the IC50 (YAPC) was over 4 µM and the IC50 (COLO-680N) was over 4 µM.
For `CC1(C)CCC(c2ccc(Cl)cc2)=C(CN2CCN(c3ccc(C(=O)NS(=O)(=O)c4ccc(N[C@H](CCN5CCOCC5)CSc5ccccc5)c(S(=O)(=O)C(F)(F)F)c4)cc3)CC2)C1` [NAVITOCLAX], the IC50 (COR-L23) was 1.8 µM, the IC50 (CaR-1) was over 2 µM and the IC50 (Daoy) was over 2 µM. For the same compound, the IC50 (EFO-27) was over 2 µM, the IC50 (FaDu) was over 2 µM and the IC50 (HCC1806) was over 2 µM. For the same compound, the IC50 (KYSE-140) was over 2 µM, the IC50 (KYSE-180) was over 2 µM and the IC50 (KYSE-270) was over 2 µM. It also gave an IC50 (MDA-MB-231) of over 2 µM, an IC50 (MDA-MB-453) of over 2 µM and an IC50 (MKN-28) of over 2 µM. The IC50 (NCI-H1563) was over 2 µM, the IC50 (NCI-H1573) was over 2 µM and the IC50 (NCI-H2052) was 1.72 µM. The IC50 (NCI-H2342) was 1.4 µM, the IC50 (NCI-H292) was over 2 µM and the IC50 (NCI-H441) was over 2 µM. It also gave an IC50 (NCI-H520) of over 2 µM, an IC50 (NCI-H522) of over 2 µM and an IC50 (OE33) of over 2 µM. For the same compound, the IC50 (OVCAR-5) was over 2 µM, the IC50 (PC-14) was over 2 µM and the IC50 (PC-3) was over 2 µM. For the same compound, the IC50 (PFSK-1) was over 2 µM, the IC50 (RD) was 0.759 µM and the IC50 (RERF-LC-MS) was over 2 µM. For the same compound, the IC50 (SCC-4) was 1.6 µM, the IC50 (SK-HEP1) was over 2 µM and the IC50 (SNU-387) was over 2 µM. For the same compound, the IC50 (SW1463) was over 2 µM, the IC50 (SW948) was over 2 µM and the IC50 (AN3-CA) was over 2 µM. For the same compound, the IC50 (AU565) was over 2 µM, the IC50 (C3A) was over 2 µM and the IC50 (CAL-54) was over 2 µM. For the same compound, the IC50 (CAL-85-1) was over 2 µM, the IC50 (UACC-893) was over 2 µM and the IC50 (UMC-11) was over 2 µM. For the same compound, the IC50 (YAPC) was over 2 µM and the IC50 (COLO-680N) was over 2 µM.
`CN(C)CCOc1ccc(-c2nc(-c3ccncc3)c(-c3ccc4c(c3)CC/C4=N\O)[nH]2)cc1` [SB590885] showed an IC50 (COR-L23) of over 5 µM, an IC50 (CaR-1) of over 5 µM and an IC50 (Daoy) of over 5 µM. The IC50 (EFO-27) was over 5 µM, the IC50 (FaDu) was over 5 µM and the IC50 (HCC1806) was over 5 µM. For the same compound, the IC50 (KYSE-140) was over 5 µM, the IC50 (KYSE-180) was over 5 µM and the IC50 (KYSE-270) was over 5 µM. It also gave an IC50 (MDA-MB-231) of over 5 µM, an IC50 (MDA-MB-453) of over 5 µM and an IC50 (MKN-28) of over 5 µM. The IC50 (NCI-H1563) was over 5 µM, the IC50 (NCI-H1573) was over 5 µM and the IC50 (NCI-H2052) was over 5 µM. It also gave an IC50 (NCI-H2342) of over 5 µM, an IC50 (NCI-H292) of 4.38 µM and an IC50 (NCI-H441) of over 5 µM. It also gave an IC50 (NCI-H520) of over 5 µM, an IC50 (NCI-H522) of over 5 µM and an IC50 (OE33) of over 5 µM. It also gave an IC50 (OVCAR-5) of over 5 µM, an IC50 (PC-14) of over 5 µM and an IC50 (PC-3) of over 5 µM. The IC50 (PFSK-1) was over 5 µM, the IC50 (RD) was over 5 µM and the IC50 (RERF-LC-MS) was over 5 µM. For the same compound, the IC50 (SCC-4) was over 5 µM, the IC50 (SK-HEP1) was over 5 µM and the IC50 (SNU-387) was over 5 µM. The IC50 (SW1463) was over 5 µM, the IC50 (SW948) was over 5 µM and the IC50 (AN3-CA) was over 5 µM. For the same compound, the IC50 (AU565) was over 5 µM, the IC50 (C3A) was over 5 µM and the IC50 (CAL-54) was over 5 µM. The IC50 (CAL-85-1) was over 5 µM, the IC50 (UMC-11) was over 5 µM and the IC50 (YAPC) was over 5 µM. It also gave an IC50 (COLO-680N) of over 5 µM.
Compound `COc1cc(N2CCC(N3CCN(C)CC3)CC2)ccc1Nc1ncc(Cl)c(Nc2ccccc2S(=O)(=O)C(C)C)n1` [TAE-684] has an IC50 (HCC1599) of over 2 µM, an IC50 (Kasumi 1) of over 2 µM and an IC50 (LB373-MEL-D) of over 2 µM. For the same compound, the IC50 (LOUCY) was over 2 µM, the IC50 (LP-1) was 1.87 µM and the IC50 (LU-165) was over 2 µM. The IC50 (MC-CAR) was over 2 µM, the IC50 (NALM-6) was 0.907 µM and the IC50 (NCI-H1522) was over 2 µM. The IC50 (NCI-H187) was 1.7 µM, the IC50 (RPMI-6666) was over 2 µM and the IC50 (SUP-T1) was over 2 µM. The IC50 (BC-3) was over 2 µM, the IC50 (BL-41) was 1.76 µM and the IC50 (CA46) was over 2 µM. The IC50 (U-698-M) was over 2 µM.
